Data reported in PubChem BioAssay (NCI).
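Following 48 hours of exposure in 96-well plates, responses at five concentrations were used to interpolate endpoints linearly. Abbreviation: GI50, concentration required for 50% inhibition of growth. TGI: concentration producing complete growth inhibition.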 Where a SMILES comes first, the peptide text is derived from it. The star is where a group is joined. Cbz = O=C(OCc1ccccc1)*; NHNH2 = NN*

How the values were obtained:
Test in all cases: inhibition of tumour cell growth, NCI panel, 48 h
HCT-15 colon = tested on: HCT-15 colon
HL-60(TB) leukemia = tested on: HL-60(TB) leukemia
IGROV1 ovarian = tested on: IGROV1 ovarian
M14 melanoma = tested on: M14 melanoma
MDA-MB-231 breast = tested on: MDA-MB-231 breast
OVCAR-4 ovarian = tested on: OVCAR-4 ovarian
SK-OV-3 ovarian = tested on: SK-OV-3 ovarian
UO-31 renal = tested on: UO-31 renal
HS 578T breast = tested on: HS 578T breast
NCI/ADR-RES ovarian = tested on: NCI/ADR-RES ovarian

Structure (SMILES) | TGI (HCT-15 colon) [µM] | TGI (HL-60(TB) leukemia) [µM] | TGI (IGROV1 ovarian) [µM] | TGI (M14 melanoma) [µM] | TGI (MDA-MB-231 breast) [µM] | TGI (OVCAR-4 ovarian) [µM] | TGI (SK-OV-3 ovarian) [µM] | TGI (UO-31 renal) [µM] | TGI (HS 578T breast) [µM] | TGI (NCI/ADR-RES ovarian) [µM] | GI50 (OVCAR-4 ovarian) [µM]
CN(C)CCn1c(=O)c2ccc(NCCCN(C)CCCNc3ccc4c(=O)n(CCN(C)C)c(=O)n5c6ccc([N+](=O)[O-])cc6c(=O)c3c45)c3c(=O)c4cc([N+](=O)[O-])ccc4n(c1=O)c23 | 0.542 | 1.56 | 0.174 | 0.753 | 0.125 | 0.0944 | 0.886 | 0.705 |  |  | 
COC(=O)C1CC2(c3ccccc3)C(=O)c3ccccc3N2O1 (centres undefined) | > 100 | 82.1 | > 100 | > 100 |  | > 100 | > 100 |  |  |  | 
CCNC(=O)C1CCCN1C(=O)C(CCCN=C(N)N)NC(=O)C(CC(C)C)NC(=O)C(Cc1c[nH]c2ccccc12)NC(=O)C(Cc1ccc(O)cc1)NC(=O)C(CO)NC(=O)C(Cc1c[nH]c2ccccc12)NC(=O)C(Cc1cnc[nH]1)NC(=O)C1CCC(=O)N1 (centres undefined) | > 100 |  | > 100 | > 100 | > 100 | > 100 | > 100 | > 100 | > 100 | > 100 | 
COC1(OC)CCCCC2c3cccc(OC(C)=O)c3C21OC(C)=O (centres undefined) | > 100 | > 100 | > 100 | > 100 |  | > 100 | > 100 | > 100 |  |  | 
O=C1C=CC(=O)c2c(O)c(NCCc3ccc(O)cc3)c(Cl)c(O)c21 | > 10 | > 10 | > 10 | > 10 | > 10 | > 10 | > 10 |  |  | > 10 | 
O=C(Nc1cccc(O)c1)C(=O)C(C(=O)c1ccccc1F)C1OC(=O)c2ccccc21 (centres undefined) | 49.2 | 87.7 | > 100 | > 100 |  | > 100 | > 100 | 96.8 |  |  | 
Cc1c2ncccc2cc2oc3ccccc3c(=O)c12 | > 100 | > 100 | > 100 |  | > 100 | > 100 | > 100 | > 100 | > 100 | > 100 | 
Nc1ccc2[nH]c(-c3cccc(Cl)c3)cc(=O)c2c1 | > 100 |  | > 100 | > 100 | > 100 | > 100 | > 100 |  | > 100 | 12.4 | > 100
O=C(N/N=C/c1cc(Br)cc(Br)c1[O-])c1ccccc1O.O=C(N/N=C/c1cc(Br)cc(Br)c1[O-])c1ccccc1O.[Fe+2] | 13.8 | 11.2 | 41.4 | 14.5 |  | 18.4 | 13.9 | 25.3 |  |  | 
CNC(=O)N(CCC#N)[C@H]1CCCC[C@@H]1N(C(=O)NC)c1ccccc1 | > 100 |  | > 100 | > 100 | > 100 | > 100 | > 100 | > 100 |  | > 100 | 
O=C(O)C(CS)N=c1c2ccccc2n(O)c2ccccc12 (centres undefined) | > 100 | > 100 | > 100 | > 100 |  | > 100 | > 100 | > 100 |  |  | 
CCCCN=C(NC#N)NCCCC | > 100 |  | > 100 | > 100 |  | > 100 | > 100 | > 100 |  |  | 
COC(=O)C1=Nc2c(C)nn(-c3ccccc3)c2N=C(c2ccc([N+](=O)[O-])cc2)C1 | > 10 | > 10 | > 10 | > 10 | > 10 | > 10 | > 10 |  | > 10 | > 10 | 
NC(N)=Nc1ncccc1[N+](=O)[O-] | > 100 | 44.4 | > 100 |  |  | > 100 | > 100 | > 100 |  | > 100 | 
CCOC(=O)C1=C(OC(OCC)C(CC)[Se]c2ccccc2)CCCC1 (centres undefined) | 41.2 | 47.8 | > 100 | 34.2 |  | 33 | > 100 | > 100 |  |  | 
Cc1cn(C(C)OCCN2C(=O)c3ccccc3C2=O)c(=O)[nH]c1=O (centres undefined) | > 100 |  | > 100 | > 100 | > 100 | > 100 |  | > 100 |  | > 100 | 
COc1ccc(-c2c(C#N)c(N)nc3c2CCS(=O)(=O)c2ccccc2-3)cc1 | > 100 | > 100 | > 100 |  | > 100 | > 100 |  | > 100 | > 100 | > 100 | 
O=C(O)C(CO)NC(=O)n1c2ccccc2c2ccccc21 (centres undefined) | > 100 | > 100 | > 100 |  |  |  | > 100 |  |  |  | 
COC(=O)CC(NC(=O)OCc1ccccc1)C(=O)NC(CC(=O)OC)C(=O)NC(CC(=O)OC)C(=O)NC(CC(=O)OC)C(=O)NC(CC(=O)OC)C(=O)NC(CC(=O)OC)C(=O)NN (centres undefined) (Cbz-D(OMe)D(OMe)D(OMe)D(OMe)D(OMe)D(OMe)-NHNH2; configuration not given here) | > 100 | > 100 | > 100 | > 100 | > 100 | > 100 | > 100 | > 100 | > 100 |  | 
CSc1nc2c(c(=O)n1C)N=C(c1ccccc1)[C@H](C(CC(=O)c1ccccc1)c1ccccc1)C(c1ccccc1)N2 (some centres undefined) | > 100 | > 100 | > 100 | > 100 | > 100 | > 100 |  | > 100 |  | > 100 | 
COC(=O)c1c/c(=N\NC(=O)CC(=O)Nc2ccccc2OC)c2ccccc2o1 | > 100 | > 100 | > 100 | > 100 |  | > 100 | > 100 | > 100 |  |  | 
COC(=O)/C(=N/NC(=O)C[N+](C)(C)C)C(C(=O)OC)C(=O)C(=O)Nc1ccc(F)cc1 (centres undefined) | > 100 | > 100 | > 100 | > 100 |  | > 100 | > 100 | > 100 |  |  | 
Cc1cn([C@@H]2C[C@H]2CO)c(=O)[nH]c1=O | > 100 | > 100 | > 100 | > 100 | > 100 | > 100 |  | > 100 |  | > 100 | 
CC1(C)OCC2OC3([C@H]4OC(C)(C)O[C@@H]4CO)OC(C)(C)OC3C2O1 (some centres undefined) | > 100 |  | > 100 | > 100 | > 100 | > 100 |  | > 100 |  | > 100 | 
